From ChEMBL document CHEMBL5678818, “Discovery of potent SOS1 inhibitors that block RAS activation via disruption of the RAS-SOS1 interaction” (Proc Natl Acad Sci U S A, 2019)

What was measured:
[1] = target: Receptor-type tyrosine-protein kinase FLT3 (Homo sapiens) (UniProt P36888); assay: Inhibition of FLT3 (unknown origin) assessed as residual activity at 100 nM by KINOMEscan analysis relative to control
[2] = target: T1, Serine/threonine-protein kinase ULK3 (Homo sapiens) (UniProt Q6PHR2); assay: Inhibition of ULK3 (unknown origin) assessed as residual activity at 100 nM by KINOMEscan analysis relative to control
T1 sequence (whole entry): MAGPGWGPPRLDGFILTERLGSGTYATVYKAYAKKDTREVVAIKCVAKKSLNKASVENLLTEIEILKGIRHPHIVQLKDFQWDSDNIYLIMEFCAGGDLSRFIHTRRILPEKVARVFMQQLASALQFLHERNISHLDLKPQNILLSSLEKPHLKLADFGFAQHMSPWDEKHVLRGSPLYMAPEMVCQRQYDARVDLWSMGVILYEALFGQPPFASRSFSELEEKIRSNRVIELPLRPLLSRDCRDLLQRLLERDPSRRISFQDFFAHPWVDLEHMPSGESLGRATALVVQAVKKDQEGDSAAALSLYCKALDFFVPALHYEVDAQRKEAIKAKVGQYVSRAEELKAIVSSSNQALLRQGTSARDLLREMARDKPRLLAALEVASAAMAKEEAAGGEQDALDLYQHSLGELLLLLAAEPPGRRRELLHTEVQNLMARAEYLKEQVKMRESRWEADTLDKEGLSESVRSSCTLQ

[3] = target: T2, Mitogen-activated protein kinase kinase kinase 13 (Homo sapiens) (UniProt O43283); assay: Inhibition of LZK (unknown origin) assessed as residual activity at 100 nM by KINOMEscan analysis relative to control
T2 sequence (whole entry): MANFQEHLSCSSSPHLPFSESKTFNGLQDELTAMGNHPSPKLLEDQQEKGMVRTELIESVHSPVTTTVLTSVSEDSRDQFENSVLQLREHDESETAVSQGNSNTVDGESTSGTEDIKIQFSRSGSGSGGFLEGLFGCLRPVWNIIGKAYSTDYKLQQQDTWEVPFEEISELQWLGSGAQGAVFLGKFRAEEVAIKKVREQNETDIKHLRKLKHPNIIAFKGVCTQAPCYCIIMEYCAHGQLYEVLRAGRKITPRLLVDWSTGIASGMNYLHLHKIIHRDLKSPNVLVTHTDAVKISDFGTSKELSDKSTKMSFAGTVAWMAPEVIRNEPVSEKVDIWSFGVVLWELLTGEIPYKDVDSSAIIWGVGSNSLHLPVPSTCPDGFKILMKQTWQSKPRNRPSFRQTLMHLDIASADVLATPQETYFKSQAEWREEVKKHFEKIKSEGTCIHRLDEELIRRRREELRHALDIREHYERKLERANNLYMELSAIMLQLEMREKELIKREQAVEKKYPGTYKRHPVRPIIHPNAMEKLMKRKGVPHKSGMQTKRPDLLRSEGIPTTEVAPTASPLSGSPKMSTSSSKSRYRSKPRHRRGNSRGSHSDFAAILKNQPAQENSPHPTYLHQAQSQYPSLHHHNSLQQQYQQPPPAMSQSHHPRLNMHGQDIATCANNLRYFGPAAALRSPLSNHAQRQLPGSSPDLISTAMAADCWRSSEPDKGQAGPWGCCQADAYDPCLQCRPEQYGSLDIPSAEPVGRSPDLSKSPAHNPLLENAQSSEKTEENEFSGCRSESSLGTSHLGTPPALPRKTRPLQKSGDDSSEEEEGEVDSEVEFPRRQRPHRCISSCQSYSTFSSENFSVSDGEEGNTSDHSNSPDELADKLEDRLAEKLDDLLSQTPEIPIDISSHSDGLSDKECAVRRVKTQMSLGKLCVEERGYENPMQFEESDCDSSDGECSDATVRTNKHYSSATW

[4] = target: T3, Serine/threonine-protein kinase TAO1 (Homo sapiens) (UniProt Q7L7X3); assay: Inhibition of TAOK1 (unknown origin) assessed as residual activity at 100 nM by KINOMEscan analysis relative to control
T3 sequence (whole entry): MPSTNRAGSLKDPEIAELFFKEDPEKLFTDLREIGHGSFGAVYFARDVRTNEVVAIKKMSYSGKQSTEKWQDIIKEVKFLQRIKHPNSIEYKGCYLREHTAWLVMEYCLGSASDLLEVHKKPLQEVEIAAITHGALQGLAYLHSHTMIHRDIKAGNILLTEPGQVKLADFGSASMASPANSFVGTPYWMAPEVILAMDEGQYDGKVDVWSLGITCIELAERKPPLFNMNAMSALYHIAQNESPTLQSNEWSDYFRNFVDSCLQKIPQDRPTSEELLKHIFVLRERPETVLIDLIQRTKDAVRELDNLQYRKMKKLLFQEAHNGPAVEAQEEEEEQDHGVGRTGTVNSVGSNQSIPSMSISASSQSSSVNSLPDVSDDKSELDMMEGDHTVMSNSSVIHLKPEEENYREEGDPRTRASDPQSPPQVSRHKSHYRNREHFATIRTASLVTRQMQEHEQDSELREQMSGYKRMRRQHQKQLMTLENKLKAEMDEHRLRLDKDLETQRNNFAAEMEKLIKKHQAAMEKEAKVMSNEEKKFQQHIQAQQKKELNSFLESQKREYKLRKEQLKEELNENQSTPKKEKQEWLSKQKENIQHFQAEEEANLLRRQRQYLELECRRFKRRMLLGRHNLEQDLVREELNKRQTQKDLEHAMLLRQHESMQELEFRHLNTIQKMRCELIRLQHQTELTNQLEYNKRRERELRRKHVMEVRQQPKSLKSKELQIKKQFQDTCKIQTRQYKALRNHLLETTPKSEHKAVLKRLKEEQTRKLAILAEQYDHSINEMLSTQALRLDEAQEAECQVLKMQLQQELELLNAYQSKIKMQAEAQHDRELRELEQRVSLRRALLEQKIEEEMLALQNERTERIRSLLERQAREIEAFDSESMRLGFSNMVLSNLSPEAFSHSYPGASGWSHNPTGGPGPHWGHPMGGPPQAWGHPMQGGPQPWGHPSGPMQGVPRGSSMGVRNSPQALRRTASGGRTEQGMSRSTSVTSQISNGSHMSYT

[5] = target: Wee1-like protein kinase (Homo sapiens) (UniProt P30291); assay: Inhibition of WEE1 (unknown origin) assessed as residual activity at 100 nM by KINOMEscan analysis relative to control
[6] = species on record: Homo sapiens; assay: Inhibition of C-terminal RPS6KA4 kinetic domain 2 (unknown origin) assessed as residual activity at 100 nM by KINOMEscan analysis relative to control

Chain of Receptor-type tyrosine-protein kinase FLT3 (Homo sapiens) (P36888 whole entry): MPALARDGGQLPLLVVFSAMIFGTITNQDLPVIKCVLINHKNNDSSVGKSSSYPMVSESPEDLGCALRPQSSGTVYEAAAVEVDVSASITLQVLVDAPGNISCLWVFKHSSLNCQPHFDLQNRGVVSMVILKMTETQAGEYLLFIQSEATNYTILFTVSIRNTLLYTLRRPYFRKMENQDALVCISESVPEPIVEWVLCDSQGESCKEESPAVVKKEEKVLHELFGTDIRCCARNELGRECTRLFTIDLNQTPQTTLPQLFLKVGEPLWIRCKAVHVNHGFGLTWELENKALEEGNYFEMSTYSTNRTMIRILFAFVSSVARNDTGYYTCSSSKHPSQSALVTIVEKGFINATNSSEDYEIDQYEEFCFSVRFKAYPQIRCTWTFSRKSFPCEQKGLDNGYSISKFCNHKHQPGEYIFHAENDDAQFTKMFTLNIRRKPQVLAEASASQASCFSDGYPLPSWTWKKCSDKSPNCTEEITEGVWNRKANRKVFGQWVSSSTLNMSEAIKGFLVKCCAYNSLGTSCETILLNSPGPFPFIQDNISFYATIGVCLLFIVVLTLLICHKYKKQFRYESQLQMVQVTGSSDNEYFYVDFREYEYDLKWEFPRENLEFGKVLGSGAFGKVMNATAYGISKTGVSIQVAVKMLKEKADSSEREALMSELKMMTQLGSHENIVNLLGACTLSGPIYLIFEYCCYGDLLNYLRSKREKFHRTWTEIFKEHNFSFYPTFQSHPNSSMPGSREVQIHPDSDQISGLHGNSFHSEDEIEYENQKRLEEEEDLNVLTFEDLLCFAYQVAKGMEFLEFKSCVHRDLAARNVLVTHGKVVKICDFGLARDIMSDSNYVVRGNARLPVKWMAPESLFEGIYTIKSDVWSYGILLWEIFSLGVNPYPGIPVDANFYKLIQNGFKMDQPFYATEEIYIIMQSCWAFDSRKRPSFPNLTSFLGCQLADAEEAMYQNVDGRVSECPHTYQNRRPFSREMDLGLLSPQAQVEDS
Chain of Wee1-like protein kinase (Homo sapiens) (P30291 whole entry, looked up, the tested form may be a part): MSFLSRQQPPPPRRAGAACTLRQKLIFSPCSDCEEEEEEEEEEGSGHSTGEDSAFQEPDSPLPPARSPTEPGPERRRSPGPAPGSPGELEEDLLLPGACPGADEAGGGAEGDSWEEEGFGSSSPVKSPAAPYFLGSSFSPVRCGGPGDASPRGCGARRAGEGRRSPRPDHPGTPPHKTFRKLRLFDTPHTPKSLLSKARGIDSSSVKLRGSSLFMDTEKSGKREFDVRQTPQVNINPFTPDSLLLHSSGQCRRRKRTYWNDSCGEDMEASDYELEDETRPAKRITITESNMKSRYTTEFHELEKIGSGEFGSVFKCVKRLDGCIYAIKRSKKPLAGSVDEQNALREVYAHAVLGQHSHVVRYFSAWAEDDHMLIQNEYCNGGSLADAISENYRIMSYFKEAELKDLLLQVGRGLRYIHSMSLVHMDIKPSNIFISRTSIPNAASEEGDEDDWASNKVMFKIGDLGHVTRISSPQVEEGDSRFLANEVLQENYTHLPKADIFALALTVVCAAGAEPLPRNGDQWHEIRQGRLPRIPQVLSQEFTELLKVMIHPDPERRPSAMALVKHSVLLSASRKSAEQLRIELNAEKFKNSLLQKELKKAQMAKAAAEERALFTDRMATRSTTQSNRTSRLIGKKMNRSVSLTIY

SMILES: COc1cc2ncnc(N[C@H](C)c3cccc4ccccc34)c2cc1OC
- Activity [1]: 83%
- Activity [2]: 89%
- Activity [3]: 82%
- Activity [4]: 88%
- Activity [5]: 88%
- Activity [6]: 87%
